The source made the active and inactive calls.
Legend:
[1] = biological target: Dual specificity protein kinase CLK1 (Homo sapiens, UniProt P49759); test: CLK1 kinase inhibitors, off-target check, dose response, selectivity assay for Dyrk1A inhibitor project, biochemical, cherry-picked samples (AID 588811)
[2] = biological target: T1, Short transient receptor potential channel 4 (Mus musculus, UniProt Q9QUQ5); test: mouse TRPC4 channel activators, dose response, cell-based, HEK293 TRPC4/mu-opioid, Fluo-4 calcium (AID 434937); format: functional
T1 sequence (Q9QUQ5 whole entry): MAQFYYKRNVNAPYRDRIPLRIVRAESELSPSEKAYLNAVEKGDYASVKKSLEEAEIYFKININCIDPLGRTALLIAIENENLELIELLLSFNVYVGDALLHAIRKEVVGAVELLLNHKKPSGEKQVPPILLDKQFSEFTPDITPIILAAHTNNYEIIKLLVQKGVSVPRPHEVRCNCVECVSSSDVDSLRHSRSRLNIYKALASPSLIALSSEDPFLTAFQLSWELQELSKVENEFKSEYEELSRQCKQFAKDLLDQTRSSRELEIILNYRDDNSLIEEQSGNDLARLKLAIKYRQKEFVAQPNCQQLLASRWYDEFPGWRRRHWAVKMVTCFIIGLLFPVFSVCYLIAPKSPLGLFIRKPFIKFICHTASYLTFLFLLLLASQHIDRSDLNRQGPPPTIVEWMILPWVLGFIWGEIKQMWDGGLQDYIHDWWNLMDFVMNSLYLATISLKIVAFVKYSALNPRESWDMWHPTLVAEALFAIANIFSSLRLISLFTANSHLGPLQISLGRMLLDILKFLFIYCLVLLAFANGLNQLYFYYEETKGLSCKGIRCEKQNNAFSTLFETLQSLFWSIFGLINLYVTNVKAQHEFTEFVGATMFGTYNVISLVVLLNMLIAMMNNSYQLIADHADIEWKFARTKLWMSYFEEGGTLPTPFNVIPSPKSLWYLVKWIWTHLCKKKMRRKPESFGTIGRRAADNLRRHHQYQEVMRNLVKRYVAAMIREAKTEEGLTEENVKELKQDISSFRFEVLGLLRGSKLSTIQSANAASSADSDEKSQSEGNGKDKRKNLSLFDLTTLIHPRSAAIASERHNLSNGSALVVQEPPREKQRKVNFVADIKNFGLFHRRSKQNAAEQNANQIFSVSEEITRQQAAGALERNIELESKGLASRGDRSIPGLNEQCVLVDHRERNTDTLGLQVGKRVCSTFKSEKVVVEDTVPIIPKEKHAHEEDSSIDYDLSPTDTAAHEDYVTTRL

[3] = biological target: Delta-type opioid receptor (Homo sapiens, UniProt P41143); test: Counterscreen for agonists of heterodimerization of the mu 1 (OPRM1) and delta 1 (OPRD1) opioid receptors: Luminescence-based cell-based high throughput dose response assay to identify agonists of OPRD1 homodimerization. [Related pubchem assays (depositor defined):AID504326, AID504355, AID504692, AID504904, AID504905]; format: functional
Chain of Delta-type opioid receptor (P41143 whole entry): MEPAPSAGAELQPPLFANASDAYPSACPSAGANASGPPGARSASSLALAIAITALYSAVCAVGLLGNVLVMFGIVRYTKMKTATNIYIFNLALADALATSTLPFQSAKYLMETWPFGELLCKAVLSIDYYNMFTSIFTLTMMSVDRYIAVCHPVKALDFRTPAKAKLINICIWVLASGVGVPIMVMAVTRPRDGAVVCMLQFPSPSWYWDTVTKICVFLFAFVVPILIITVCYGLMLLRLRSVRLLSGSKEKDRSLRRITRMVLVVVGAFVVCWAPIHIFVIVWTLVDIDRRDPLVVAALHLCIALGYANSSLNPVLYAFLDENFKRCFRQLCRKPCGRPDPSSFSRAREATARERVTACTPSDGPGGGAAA

Mu-type opioid receptor = Mu-type opioid receptor (Homo sapiens, UniProt P35372); test: Counterscreen for agonists of heterodimerization of the mu 1 (OPRM1) and delta 1 (OPRD1) opioid receptors: Luminescence-based cell-based high throughput dose response assay to identify agonists of OPRM1 homodimerization.; format: functional;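 note: U2OS cells expressing OPRM1 and beta-arrestin as split beta-galactosidase partners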
Chain of Mu-type opioid receptor (P35372 whole entry): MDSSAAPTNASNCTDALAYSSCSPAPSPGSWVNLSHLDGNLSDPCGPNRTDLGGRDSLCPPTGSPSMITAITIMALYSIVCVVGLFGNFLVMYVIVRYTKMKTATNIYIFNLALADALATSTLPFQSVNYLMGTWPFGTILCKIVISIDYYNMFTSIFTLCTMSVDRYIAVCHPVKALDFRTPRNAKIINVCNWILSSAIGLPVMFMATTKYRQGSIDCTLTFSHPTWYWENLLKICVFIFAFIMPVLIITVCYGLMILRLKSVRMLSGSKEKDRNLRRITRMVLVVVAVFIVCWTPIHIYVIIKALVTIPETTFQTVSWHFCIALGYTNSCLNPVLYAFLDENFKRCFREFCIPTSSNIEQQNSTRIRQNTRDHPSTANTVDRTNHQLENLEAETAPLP

[4] = biological target: Opioid receptors; mu & delta (Homo sapiens, UniProt P41143+P35372); test: agonists of MOR-DOR heterodimerization, dose response, cell-based, luminescence (AID 588407); format: functional
[5] = biological target: 5-hydroxytryptamine receptor 5A (Homo sapiens, UniProt P47898); test: Counterscreen for agonists of OPRM1-OPRD1 heterodimerization: luminescence-based cell-based high throughput dose response assay to identify agonists of 5-hydroxytryptamine (serotonin) 5A receptor (HTR5A). [Related pubchem assays (depositor defined):AID504326, AID504355, AID504692, AID504904, AID504905]; format: functional
Chain of 5-hydroxytryptamine receptor 5A (P47898 whole entry): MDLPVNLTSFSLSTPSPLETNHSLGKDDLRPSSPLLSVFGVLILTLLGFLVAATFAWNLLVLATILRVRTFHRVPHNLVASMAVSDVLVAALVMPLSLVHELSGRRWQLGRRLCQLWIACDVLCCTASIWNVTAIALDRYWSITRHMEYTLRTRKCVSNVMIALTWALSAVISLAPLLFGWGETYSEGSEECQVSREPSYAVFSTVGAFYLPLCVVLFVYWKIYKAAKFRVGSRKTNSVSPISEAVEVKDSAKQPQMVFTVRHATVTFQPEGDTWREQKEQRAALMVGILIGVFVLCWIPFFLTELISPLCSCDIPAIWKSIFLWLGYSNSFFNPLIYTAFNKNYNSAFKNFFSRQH

[6] = biological target: T2, Heat shock factor protein 1 (Mus musculus, UniProt P38532); test: inhibition of MG132-induced HSE-luciferase signal, confirmation, cell-based, NIH3T3, luminescence, dose retest (AID 2382); format: functional;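 note: NIH3T3 fibroblasts with HSF1-driven luciferase reporter stressed by proteasome inhibitor MG132; luminescence from HSF1-driven luciferase expression after 8 hours of MG132 stress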
T2 sequence (P38532 whole entry): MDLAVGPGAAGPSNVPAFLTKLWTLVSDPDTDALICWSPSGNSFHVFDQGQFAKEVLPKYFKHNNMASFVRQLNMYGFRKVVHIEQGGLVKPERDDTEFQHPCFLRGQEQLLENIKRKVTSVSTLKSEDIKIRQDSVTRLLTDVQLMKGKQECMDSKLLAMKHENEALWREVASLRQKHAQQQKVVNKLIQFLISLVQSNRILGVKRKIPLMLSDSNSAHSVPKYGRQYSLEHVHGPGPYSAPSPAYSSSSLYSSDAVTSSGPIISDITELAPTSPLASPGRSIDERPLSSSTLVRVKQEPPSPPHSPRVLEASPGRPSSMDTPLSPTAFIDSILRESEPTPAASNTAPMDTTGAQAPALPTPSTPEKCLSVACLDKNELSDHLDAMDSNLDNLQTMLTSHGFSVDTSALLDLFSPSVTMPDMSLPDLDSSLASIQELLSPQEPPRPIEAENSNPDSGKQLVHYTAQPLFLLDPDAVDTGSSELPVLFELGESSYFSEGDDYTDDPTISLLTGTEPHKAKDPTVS

Jurkat = test: antigen receptor-induced NF-kB inhibitors, dose response, Jurkat, luciferase reporter, luminescence, B- and T-cell (AID 489004); format: functional, cell-based; details: Homo sapiens;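 note: NF-kB luciferase reporter Jurkat cells stimulated with PMA plus ionomycin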
[7] = cytotoxicity in HEK-293T NF-kB-Luc cells, dose response, cytotoxicity control for B/T-cell NF-kB inhibitor project, cell-based, uHTS hits (AID 489019); format: functional;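 note: IC50 reflects cytotoxicity as loss of cell viability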
[8] = biological target: Luciferin 4-monooxygenase (Photuris pensylvanica, UniProt Q27757); test: firefly luciferase enzyme inhibitors, dose response, counter-screen for HSF-1 reporter inhibitor project, biochemical, Cell Titer Glo, luminescence, cherry-picks (AID 588847)
Chain of Luciferin 4-monooxygenase (Q27757 whole entry): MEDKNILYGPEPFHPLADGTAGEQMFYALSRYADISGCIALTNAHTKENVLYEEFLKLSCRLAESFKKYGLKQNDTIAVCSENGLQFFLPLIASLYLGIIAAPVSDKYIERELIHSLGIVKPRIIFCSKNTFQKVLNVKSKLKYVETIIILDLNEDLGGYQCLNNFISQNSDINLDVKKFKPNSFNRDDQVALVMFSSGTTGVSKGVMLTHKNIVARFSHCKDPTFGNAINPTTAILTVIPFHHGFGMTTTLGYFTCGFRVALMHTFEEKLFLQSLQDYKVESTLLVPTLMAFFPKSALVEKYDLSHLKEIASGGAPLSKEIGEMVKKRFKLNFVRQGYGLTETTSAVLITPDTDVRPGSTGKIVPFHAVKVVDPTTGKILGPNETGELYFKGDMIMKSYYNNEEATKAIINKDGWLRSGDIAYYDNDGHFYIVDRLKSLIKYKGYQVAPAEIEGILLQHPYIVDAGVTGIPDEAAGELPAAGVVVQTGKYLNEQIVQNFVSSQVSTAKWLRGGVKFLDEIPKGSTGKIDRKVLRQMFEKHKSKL

[9] = Shn3 3'UTR reporter inhibitors, dose response, cell-based, Clone20 osteoblasts, firefly luciferase, cherry-picked (AID 624132); format: functional;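 note: firefly luciferase luminescence from reporter carrying the Shn3 3'UTR in osteoblasts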
[10] = HepG2 cell cytotoxicity, dose response, cytotoxicity control for Shn3 inhibitor project, CellTiter-Glo, cherry-picked (AID 624134); format: functional, cell-based
[11] = control 3'UTR Renilla luciferase suppression, dose response, counter-screen for Shn3 inhibitor project, cell-based, Clone20-Shn3RL, cherry-picked (AID 624133); format: functional
Protein skinhead-1 = biological target: T3, Protein skinhead-1 (Caenorhabditis elegans, UniProt P34707); format: functional
T3 sequence (P34707 whole entry): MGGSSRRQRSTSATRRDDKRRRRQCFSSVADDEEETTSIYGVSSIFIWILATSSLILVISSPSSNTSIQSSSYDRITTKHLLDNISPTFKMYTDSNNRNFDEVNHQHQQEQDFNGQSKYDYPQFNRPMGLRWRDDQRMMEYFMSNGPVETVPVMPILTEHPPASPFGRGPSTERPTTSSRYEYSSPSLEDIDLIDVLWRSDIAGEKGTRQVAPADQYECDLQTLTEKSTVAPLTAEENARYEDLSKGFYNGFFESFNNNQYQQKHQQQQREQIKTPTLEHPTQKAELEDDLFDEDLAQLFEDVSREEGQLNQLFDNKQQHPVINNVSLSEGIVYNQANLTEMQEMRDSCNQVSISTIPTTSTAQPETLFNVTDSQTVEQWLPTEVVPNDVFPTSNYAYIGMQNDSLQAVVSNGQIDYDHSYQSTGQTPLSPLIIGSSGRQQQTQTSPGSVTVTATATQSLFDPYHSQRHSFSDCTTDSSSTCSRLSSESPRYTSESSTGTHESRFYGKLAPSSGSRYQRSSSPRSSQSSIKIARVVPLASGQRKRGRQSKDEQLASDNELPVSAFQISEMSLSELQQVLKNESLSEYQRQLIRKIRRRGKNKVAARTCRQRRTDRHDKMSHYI

Paired box protein Pax-8 = Paired box protein Pax-8 (Homo sapiens, UniProt Q06710); test: inhibitors of PAX8-driven TPO luciferase reporter, dose response, RMG-I cells, cherry-pick (AID 687027); format: functional, cell-based;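 note: luciferase reporter driven by Pax8 target thyroperoxidase promoter measured by SteadyGlo luminescence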
Chain of Paired box protein Pax-8 (Q06710 whole entry): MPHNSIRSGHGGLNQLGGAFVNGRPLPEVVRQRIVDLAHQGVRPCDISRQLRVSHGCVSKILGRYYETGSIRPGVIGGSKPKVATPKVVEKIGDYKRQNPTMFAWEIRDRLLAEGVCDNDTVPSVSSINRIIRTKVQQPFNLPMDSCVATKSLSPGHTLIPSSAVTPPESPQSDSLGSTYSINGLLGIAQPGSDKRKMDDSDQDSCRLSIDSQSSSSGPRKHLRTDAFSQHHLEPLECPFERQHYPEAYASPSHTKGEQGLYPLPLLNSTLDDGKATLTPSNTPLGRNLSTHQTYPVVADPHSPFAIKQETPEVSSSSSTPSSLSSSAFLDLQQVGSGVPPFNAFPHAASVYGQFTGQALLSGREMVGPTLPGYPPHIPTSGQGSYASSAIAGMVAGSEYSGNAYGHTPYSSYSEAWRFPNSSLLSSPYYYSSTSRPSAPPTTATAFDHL

[12] = HepG2 cell cytotoxicity, dose response, cytotoxicity control, plate reader, cherry-pick, antagonist series (AID 743416); format: functional, cell-based
[13] = LGR2 antagonists, dose response, cell-based, HEK293, CRE-luciferase reporter, cherry pick, set 2 (AID 743343); format: functional;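 note: transfected cells were stimulated with diluted bursicon conditioned medium after compound addition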
[14] = MC4R antagonists, dose response, counter-screen for LGR2 antagonist project, cell-based, plate reader, cherry pick (AID 743444); format: functional;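 note: transfected HEK 293 cells stimulated with alpha-MSH peptide; potency of inhibitors of the alpha-MSH evoked signal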
[15] = HEK293 cell cytotoxicity, dose response, cytotoxicity control, plate reader, cherry-picked samples (AID 743446); format: functional, cell-based
[16] = system: Streptococcus sp. 'group A'; test: growth inhibition of control SK(-) GAS strain, dose response, counter-screen for streptokinase expression inhibitor project, luminescence, kanamycin, BacTiterGlo, confirmation (AID 1900); format: functional, organism-based
Streptokinase A = biological target: T4, Streptokinase A (Streptococcus pyogenes serotype M1, UniProt P10520); test: S. pyogenes streptokinase expression inhibitors, potency, dose response, plasminogen activation absorbance, OD405 (AID 1914); format: functional, Streptococcus pyogenes M1 GAS;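 note: secreted streptokinase activity via plasminogen activation per viability signal from cell pellet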
T4 sequence (P10520 whole entry): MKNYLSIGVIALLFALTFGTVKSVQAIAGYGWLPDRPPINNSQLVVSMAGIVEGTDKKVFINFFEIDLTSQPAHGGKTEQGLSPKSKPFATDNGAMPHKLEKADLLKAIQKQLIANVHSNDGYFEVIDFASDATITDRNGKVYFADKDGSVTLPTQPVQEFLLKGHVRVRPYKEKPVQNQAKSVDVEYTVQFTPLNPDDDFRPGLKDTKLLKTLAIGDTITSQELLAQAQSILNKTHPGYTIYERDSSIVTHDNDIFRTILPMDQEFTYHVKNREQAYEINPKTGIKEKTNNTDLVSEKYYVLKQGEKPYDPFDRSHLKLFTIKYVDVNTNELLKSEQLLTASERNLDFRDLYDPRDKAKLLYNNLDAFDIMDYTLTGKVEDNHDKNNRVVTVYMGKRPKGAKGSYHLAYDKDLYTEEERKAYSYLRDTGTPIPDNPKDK

Streptococcus = test: Group A Streptococcus viability loss, dose response, counter-screen for streptokinase expression inhibitor project, luminescence, BacTiterGlo (AID 1915); format: functional, organism-based;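 note: potency for reduction of bacterial viability or growth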
Cysteine protease ATG4B = Cysteine protease ATG4B (Homo sapiens, UniProt Q9Y4P1); format: functional;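 note: Fluorescence-based dose-response confirmation assay measuring inhibition of ATG4B activity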
Chain of Cysteine protease ATG4B (Q9Y4P1 whole entry): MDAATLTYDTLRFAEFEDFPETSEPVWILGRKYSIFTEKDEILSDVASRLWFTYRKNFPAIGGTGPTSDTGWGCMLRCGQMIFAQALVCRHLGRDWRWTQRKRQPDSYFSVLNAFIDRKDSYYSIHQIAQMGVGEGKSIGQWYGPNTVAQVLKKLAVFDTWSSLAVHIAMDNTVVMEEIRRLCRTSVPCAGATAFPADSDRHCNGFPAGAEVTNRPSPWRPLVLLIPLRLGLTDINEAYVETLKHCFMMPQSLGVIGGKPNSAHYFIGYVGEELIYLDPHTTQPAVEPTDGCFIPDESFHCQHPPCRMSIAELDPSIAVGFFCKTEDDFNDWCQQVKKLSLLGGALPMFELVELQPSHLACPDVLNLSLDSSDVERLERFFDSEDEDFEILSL

Phospholipase A2 = Phospholipase A2 (Homo sapiens, UniProt P04054); format: functional;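 note: confirmatory dose-response counterscreen on phospholipase A2, testing hits that came from an ultra-high-throughput screen for ATG4B inhibitors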
Chain of Phospholipase A2 (P04054 whole entry): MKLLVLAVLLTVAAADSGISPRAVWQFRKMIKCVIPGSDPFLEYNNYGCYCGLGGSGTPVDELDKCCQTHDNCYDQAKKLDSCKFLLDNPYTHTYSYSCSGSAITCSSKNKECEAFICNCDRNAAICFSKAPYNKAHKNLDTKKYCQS

[17] = biological target: Dual specificity tyrosine-phosphorylation-regulated kinase 1A (Rattus norvegicus, UniProt Q63470); format: biochemical, Homo sapiens
[18] = biological target: T5, Rac GTPase-activating protein 1 (Homo sapiens, UniProt Q9H0H5); test: MgcRacGAP GTPase-activating activity inhibitors, confirmation, biochemical, ADP Hunter fluorescence, primary and confirmatory (AID 624330); format: functional
T5 sequence (Q9H0H5 whole entry): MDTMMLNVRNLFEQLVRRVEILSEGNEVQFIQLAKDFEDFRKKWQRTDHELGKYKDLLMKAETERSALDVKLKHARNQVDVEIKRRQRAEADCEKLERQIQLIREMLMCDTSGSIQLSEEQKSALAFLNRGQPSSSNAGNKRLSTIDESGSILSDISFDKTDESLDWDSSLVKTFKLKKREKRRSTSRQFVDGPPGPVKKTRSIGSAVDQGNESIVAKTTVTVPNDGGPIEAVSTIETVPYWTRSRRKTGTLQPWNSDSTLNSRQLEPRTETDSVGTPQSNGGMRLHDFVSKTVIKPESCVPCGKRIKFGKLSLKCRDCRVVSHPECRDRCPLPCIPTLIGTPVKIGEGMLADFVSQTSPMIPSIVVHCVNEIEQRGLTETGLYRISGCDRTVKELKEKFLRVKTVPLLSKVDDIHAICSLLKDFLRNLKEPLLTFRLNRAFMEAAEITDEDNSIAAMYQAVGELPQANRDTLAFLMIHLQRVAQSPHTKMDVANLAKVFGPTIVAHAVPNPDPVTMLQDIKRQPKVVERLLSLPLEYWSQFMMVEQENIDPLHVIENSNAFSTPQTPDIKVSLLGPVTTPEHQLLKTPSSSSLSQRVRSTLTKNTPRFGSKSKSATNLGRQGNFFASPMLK

Candida albicans [19] = test: growth inhibition of resistant C. albicans, dose response, CaCi-8 strain, fluconazole, dry powder, set 4 (AID 488950); format: functional, organism-based
Candida albicans [20] = test: fluconazole resistance reversal in C. albicans, dose response, CaCi-2 strain, Alamar Blue, dry powder, set 4 (AID 488943); format: functional, organism-based
Candida albicans [21] = test: reversal of fluconazole resistance in C. albicans, dose response, CaCi-2 strain, Alamar Blue, dry powder, set 3 (AID 488907); format: functional, organism-based

Chain of Dual specificity protein kinase CLK1 (P49759 whole entry): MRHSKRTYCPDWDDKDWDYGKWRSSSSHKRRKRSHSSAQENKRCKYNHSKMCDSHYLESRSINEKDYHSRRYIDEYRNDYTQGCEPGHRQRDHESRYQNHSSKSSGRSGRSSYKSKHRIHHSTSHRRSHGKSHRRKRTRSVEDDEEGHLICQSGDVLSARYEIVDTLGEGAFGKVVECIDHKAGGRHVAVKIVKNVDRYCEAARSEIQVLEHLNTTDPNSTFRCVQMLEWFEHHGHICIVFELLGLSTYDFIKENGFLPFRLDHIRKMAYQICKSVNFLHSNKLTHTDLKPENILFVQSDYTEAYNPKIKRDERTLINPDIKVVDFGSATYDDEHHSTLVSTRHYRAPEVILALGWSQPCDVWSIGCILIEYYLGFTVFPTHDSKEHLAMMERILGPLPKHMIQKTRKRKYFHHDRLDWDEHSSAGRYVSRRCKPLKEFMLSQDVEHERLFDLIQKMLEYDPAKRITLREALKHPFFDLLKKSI

## Cc1ccsc1CN(C)c1ncnc2ccc(-c3ccc(CO)o3)cc12
[1]
  AC50: 0.0161 µM (active)

## COc1ccc(C2Nc3ccccc3C(=O)N2Cc2ccco2)cc1COc1ccc(NC(C)=O)cc1 (centres undefined)
[2]
  EC50: 0.149 µM (active)
[3]
  EC50: 0.0173 µM (active)
Mu-type opioid receptor
  EC50: > 92.5 µM (inactive)
[4]
  EC50: > 0.01406 µM
[5]
  EC50: > 92.5 µM (inactive)

## CN(C(=O)OC(C)(C)C)c1ccc(-c2nc3ccccc3s2)cc1
[6]
  EC50: < 0.16 µM (active)
Jurkat
  IC50: < 0.16 µM (active)
[7]
  IC50: > 80 µM (inactive)
[8]
  AC50: 1.42 µM (active)
[9]
  AC50: < 0.26 µM (active)
[10]
  AC50: > 70 µM (inactive)
[11]
  AC50: 7.35 µM (active)
Protein skinhead-1
  IC50: > 100 µM (inactive)
Paired box protein Pax-8
  AC50: 0.379 µM (active)
[12]
  AC50: > 52 µM (inactive)
[13]
  AC50: < 0.068 µM (active)
[14]
  AC50: < 0.068 µM (active)
[15]
  AC50: 46.5 µM (active)

## CC(C)c1ccccc1OCC(=O)NC1CCCc2ccccc21 (centres undefined)
[16]
  EC50: 16.3 µM (active)
Streptokinase A
  EC50: 18.5 µM (active)
Streptococcus
  EC50: > 150 µM (not active)
Cysteine protease ATG4B
  IC50: 12.2 µM (active)
Phospholipase A2
  IC50: 9.38 µM (active)

## Oc1ccc(-c2csc(NCc3ccco3)n2)cc1
[17]
  AC50: 6.71 µM (active)
[18]
  IC50: 22.1 µM (active)

## O=C(c1ccc(Cl)cc1)N1CCN(c2nc3ccccc3o2)CC1
Candida albicans [19]
  AC50: 0.176 µM (active)
Candida albicans [20]
  AC50: 14.9 µM (active)
Candida albicans [21]
  AC50: 0.465 µM (active)
